Results on 1 compound are retold here after patent publication US20090131513A1, “ANTI-INFLAMMATORY MODALITIES” (Novogen Research Pty Ltd., priority 2005, published 2009).

The test system of data set [1] is contractile response of the aortic ring to noradrenaline. In words: Vasodilatory activity in the rat aortic ring assay. On the set-up: species or system rat (Sprague-Dawley). The conditions noted are these: test compound 1 μg/ml. On the procedure: The vasodilatory capacity of test compounds was examined ex vivo using the rat aortic ring assay.
Male Sprague-Dawley rats (250±50 g) were euthanized with 80% CO2 and 20% O2. The thoracic aorta was excised and quickly mounted in organ-baths as described (Chin-Dusting et al. 2001). Full concentration-contractile curves were obtained to noradrenaline ([…]) with and without test compounds delivered at a concentration of 1 μg/ml. Experiments were repeated in n=5 different rings from 5 different animals. Only one compound at any one concentration was tested on any one ring from any one animal. Sigmoidal dose response curves were fitted for the data and the logEC50 calculated (Prism 4, GraphPad Software). The difference in these values between the presence and absence of test compound was calculated using a two-tailed paired t test. The effects of β-oestrodiol and vehicle alone were examined as a positive and negative control respectively.

For a further data set, the system named is Sprague Dawley rats. In words: Oral toxicity of Compound 1 administered daily for 11 days. Format: in vivo. The conditions noted are these: 300 mg/kg and 1000 mg/kg oral daily for 11 days in CMC 0.1%. On the procedure: Oral toxicity of Compound 1 when administered daily for 11 days was investigated. Compound 1 in CMC 0.1% as administered at the very high doses of 300 mg/kg and the limit dose of 1000 mg/kg to groups of four Sprague Dawley rats (two of each gender). Vehicle was administered to a third group.
(§1) The formulation of Compound 1 in CMC 0.1% was stable over a seven day period at both 4° C., 25° C. and 40° C. Fresh batches of Compound 1 were supplied after day seven. Bodyweights were measured immediately before administration, then at day eight and again at culling on day 12. All rats were observed daily for signs of toxicity throughout the experimental period. At necropsy, gross examination of the external surface of the body, all orifices and the thoracic and abdominal cavities and their contents was carried out. Liver, kidney, adrenals, spleen and gonads were weighed. Terminal hematology, serum biochemistry and histology of the liver, spleen and bone marrow was done.

Data set [2] can be described thus: Stability of formulation in CMC 0.1%. Format: physicochemical. The conditions noted are these: seven day period, 4° C., 25° C. and 40° C. On the procedure:
as §1

The structures appear in SMILES notation.

`O=C1c2ccc(O)c(Br)c2OCC1c1ccc(O)cc1` (stereo not drawn) [Compound 1, 3-(4-hydroxyphenyl)-7-hydroxy-8-bromo-chroman-4-one]: the “contractile response (logEC50) of the aortic ring to noradrenaline compared with vehicle” value in data set [1] is listed as “significantly inhibited”. Moreover, the evidence of toxicity result in the data set with Sprague Dawley rats is given as “no evidence of toxicity of any kind”. Moreover, in data set [2], the “stability of the formulation” value is “stable”.
